Measurements published in patent US8008488B2 (Abbott GmbH & Co. KG, priority 2003, dated 2011).
pKi: −log10 of the molar value. Structures can show the parent of a compound that is named as a salt.

Tests used:
[1] = molecular target: T1, human dopamine D3 receptors (Homo sapiens, UniProt P35462); assay: Dopamine D3 receptor binding, displacement of [125I]-iodosulpride; settings: membranes from HEK-293 cells with stably expressed human D3 receptors, 0.1 nM [125I]-iodosulpride
T1 construct: expressed in transfected cells
Description: (§1) The substance to be tested was dissolved either in methanol/Chremophor® (BASF-AG) or in dimethyl sulfoxide and then diluted with water to the desired concentration.
(§2) Triplicate mixtures were carried out.
The incubation buffer contained 50 mM Tris, 120 mM NaCl, 5 mM KCl, 2 mM CaCl2, 2 mM MgCl2 and 0.1% bovine serum albumin, 10 μM quinolone, 0.1% ascorbic acid (prepared fresh each day). The buffer was adjusted to pH 7.4 with HCl.
(§3) Measurement and Evaluation:
(§4) After incubation at 25° C. for 60 minutes, the mixtures were filtered under vacuum through Whatman GF/B glass fiber filters using a cell harvester. The filters were transferred by a filter transfer system into scintillation vials. After addition of 4 ml of Ultima Gold® (Packard), the samples were shaken for one hour and then the radioactivity was calculated in a beta counter (Packard, Tricarb 2000 or 2200CA). The cp values were converted into dpm by means of a standard quench series with the aid of the instrument's own program.
(§5) Evaluation of the inhibition plots took place by iterative nonlinear regression analysis using the Statistical Analysis System (SAS) similar to the “LIGAND” program described by Munson and Rodbard.

[2] = molecular target: T2, human dopamine D2L receptors (long isoform) (Homo sapiens, UniProt P14416); assay: Dopamine D2L receptor binding, displacement of [125I]-iodospiperone; settings: *Ki(D2L)/Ki(D3), HEK-293 membranes, 0.01 nM [125I]-iodospiperone
T2 construct: expressed in transfected cells
Description: as §1, §2
The incubation buffer contained 50 mM Tris, 120 mM NaCl, 5 mM KCl, 2 mM CaCl2, 2 mM MgCl2 and 0.1% bovine serum albumin. The buffer was adjusted to pH 7.4 with HCl.
as §3, §4, §5

T1 sequence (P35462 whole entry): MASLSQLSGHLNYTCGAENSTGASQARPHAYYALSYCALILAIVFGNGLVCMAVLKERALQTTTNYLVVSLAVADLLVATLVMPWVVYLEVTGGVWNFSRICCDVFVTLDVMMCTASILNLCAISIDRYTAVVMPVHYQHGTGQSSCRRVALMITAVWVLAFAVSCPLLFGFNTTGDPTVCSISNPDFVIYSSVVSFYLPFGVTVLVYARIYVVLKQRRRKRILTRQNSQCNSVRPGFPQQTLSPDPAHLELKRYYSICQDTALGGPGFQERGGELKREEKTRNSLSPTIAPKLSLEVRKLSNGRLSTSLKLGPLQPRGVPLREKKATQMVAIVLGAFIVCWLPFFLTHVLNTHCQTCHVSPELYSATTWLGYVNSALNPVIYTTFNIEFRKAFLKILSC
T2 sequence (P14416 whole entry, canonical isoform): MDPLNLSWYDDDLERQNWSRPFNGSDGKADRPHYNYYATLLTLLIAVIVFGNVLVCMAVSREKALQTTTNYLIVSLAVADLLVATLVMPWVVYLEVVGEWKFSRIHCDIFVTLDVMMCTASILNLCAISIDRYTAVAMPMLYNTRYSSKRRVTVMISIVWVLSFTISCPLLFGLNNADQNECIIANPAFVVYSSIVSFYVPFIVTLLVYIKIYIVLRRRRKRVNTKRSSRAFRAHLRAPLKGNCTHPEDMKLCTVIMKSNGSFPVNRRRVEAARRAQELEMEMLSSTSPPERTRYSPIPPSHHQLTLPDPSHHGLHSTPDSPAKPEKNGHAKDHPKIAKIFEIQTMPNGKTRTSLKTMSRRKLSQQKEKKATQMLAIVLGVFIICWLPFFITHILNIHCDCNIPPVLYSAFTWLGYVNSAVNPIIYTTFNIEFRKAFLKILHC

pKi [1] | Selectivity D3 vs. D2L* [2] | SMILES
8.03 | 52 | Cc1cn(CCCC(C)N2CCN(c3cc(C(F)(F)F)nc(C(C)(C)C)n3)CC2)c(=O)[nH]c1=O (stereo not drawn) [Example 54, 1-{4-[4-(2-tert-Butyl-6-trifluoromethylpyrimidin-4-yl)piperazin-1-yl]pentyl}-5-methyl-1H-pyrimidine-2,4-dione]
8.26 | 119 | CC(C)(C)c1nc(N2CCN(CCCCn3cc(C(F)(F)F)c(=O)[nH]c3=O)CC2)cc(C(F)(F)F)n1 [Example 55, 1-{4-[4-(2-tert-Butyl-6-trifluoromethylpyrimidin-4-yl)piperazin-1-yl]butyl}-5-trifluoromethyl-1H-pyrimidine-2,4-dione]
8.99 | 134 | CCCc1cc(N2CCN(CCCCn3cc(C(F)(F)F)c(=O)[nH]c3=O)CC2)nc(C(C)(C)C)n1 [Example 56, 1-{4-[4-(2-tert-Butyl-6-propylpyrimidin-4-yl)piperazin-1-yl]butyl}-5-trifluoromethyl-1H-pyrimidine-2,4-dione]
8.74 | 44 | CCCc1cc(N2CCN(CCCCn3ccc(-c4cccc(C)c4)nc3=O)CC2)nc(C(C)(C)C)n1 [Example 59, 1-{4-[4-(2-tert-Butyl-6-propylpyrimidin-4-yl)piperazin-1-yl]butyl}-4-(m-tolyl)-1H-pyrimidin-2-one]
7.96 | 49 | CC(CCCn1ccc(=O)[nH]c1=O)N1CCN(c2cc(C(F)(F)F)nc(C(C)(C)C)n2)CC1 (stereo not drawn) [Example 62, 1-{4-[4-(2-tert-Butyl-6-trifluoromethylpyrimidin-4-yl)piperazin-1-yl]pentyl}-1H-pyrimidine-2,4-dione]
8.48 | 62 | CCCc1cc(N2CCN(C/C=C(\C)Cn3cc(C)c(=O)[nH]c3=O)CC2)nc(C(C)(C)C)n1 [Example 65]
8.00 | 30 | CCCc1cc(N2CCN(CCC(C)Cn3cc(C)c(=O)[nH]c3=O)CC2)nc(C(C)(C)C)n1 (stereo not drawn) [Example 70, 1-{4-[4-(2-tert-Butyl-6-propylpyrimidin-4-yl)piperazin-1-yl]-2-methylbutyl}-5-methyl-1H-pyrimidine-2,4-dione]
8.82 | 53 | CCCc1cc(N2CCN(CCCCn3ccc(C4CCC4)nc3=O)CC2)nc(C(C)(C)C)n1 [Example 74, 1-{4-[4-(2-tert-Butyl-6-propylpyrimidin-4-yl)piperazin-1-yl]butyl}-4-cyclobutyl-1H-pyrimidin-2-one]
8.64 | 80 | CCCc1cc(N2CCN(CCCCn3ccc(-c4ccc(C)cc4)nc3=O)CC2)nc(C(C)(C)C)n1 [Example 75, 4-(2-tert-Butyl-6-propylpyrimidin-4-yl)-1-[4-(2-oxo-4-(p-tolyl)-2H-pyrimidin-1-yl)butyl]piperazine 1-fumarate]
9.13 | 150 | CC(=O)O.CCCc1cc(N2CCN(CCCCn3cc(Cl)c(=O)[nH]c3=O)CC2)nc(C(C)(C)C)n1 [Example 77, 4-(2-tert-Butyl-6-propylpyrimidin-4-yl)-1-[4-(5-chloro-2,4-dioxo-3,4-dihydro-2H-pyrimidin-1-yl)butyl]piperazin-1-ium acetate]
9.49 | 48 | O=c1ccn(CCCCN2CCN(c3cccc(Cl)c3Cl)CC2)c(=O)[nH]1 [Example 78, 1-{4-[4-(2,3-Dichlorophenyl)piperazin-1-yl]butyl}-1H-pyrimidine-2,4-dione]
9.07 | 30 | O=c1[nH]c(=O)n(CCCCN2CCN(c3cccc(Cl)c3Cl)CC2)cc1F [Example 79, 1-{4-[4-(2,3-Dichlorophenyl)piperazin-1-yl]butyl}-5-fluoro-1H-pyrimidine-2,4-dione]
8.78 | 89 | CCc1cn(CCCCN2CCN(c3cc(C(F)(F)F)nc(C(C)(C)C)n3)CC2)c(=O)[nH]c1=O [Example 83, 4-(2-tert-Butyl-6-trifluoromethylpyrimidin-4-yl)-1-[4-(5-ethyl-2,4-dioxo-3,4-dihydro-2H-pyrimidin-1-yl)butyl]piperazine 1-fumarate]
9.01 | 31 | CCCc1cc(N2CCN(CCCCn3ccc(-c4cccs4)nc3=O)CC2)nc(C(C)(C)C)n1 [Example 87, 1-{4-[4-(2-tert-Butyl-6-propylpyrimidin-4-yl)piperazin-1-yl]butyl}-4-thiophen-2-yl-1H-pyrimidin-2-one]
9.19 | 40 | CCCc1cc(N2CCN(CCCCn3ccc(-c4ccsc4)nc3=O)CC2)nc(C(C)(C)C)n1 [Example 93, 1-{4-[4-(2-tert-Butyl-6-propylpyrimidin-4-yl)piperazin-1-yl]butyl}-4-thiophen-3-yl-1H-pyrimidin-2-one]

SMILES | pKi [1] | Selectivity D3 vs. D2L* [2]
CCCc1cc(N2CCN(CCCCn3ccc(-c4ccccc4C)nc3=O)CC2)nc(C(C)(C)C)n1 [Example 57, 4-(2-tert-Butyl-6-propylpyrimidin-4-yl)-1-[4-(2-oxo-4-(o-tolyl)-2H-pyrimidin-1-yl)butyl]-piperazin-1-ium fumarate] | 9.02 | 111
Cc1ccccc1-c1ccn(CCCCN2CCN(c3cc(C(F)(F)F)nc(C(C)(C)C)n3)CC2)c(=O)n1 [Example 60, 4-(2-tert-Butyl-6-trifluoromethylpyrimidin-4-yl)-1-[4-(2-oxo-4-(o-tolyl)-2H-pyrimidin-1-yl)butyl]piperazin-1-ium fumarate] | 8.36 | 91
CCCc1cc(N2CCN(C(C)CCCn3ccc(=O)[nH]c3=O)CC2)nc(C(C)(C)C)n1 (stereo not drawn) [Example 61, 4-(2-tert-Butyl-6-propylpyrimidin-4-yl)-1-[4-(2,4-dioxo-3,4-dihydro-2H-pyrimidin-1-yl)-1-methylbutyl]piperazin-1-ium fumarate] | 8.23 | 28
Cc1ccc(-c2ccn(CCCCN3CCN(c4cc(C(F)(F)F)nc(C(C)(C)C)n4)CC3)c(=O)n2)cc1 [Example 66, 4-(2-tert-Butyl-6-trifluoromethylpyrimidin-4-yl)-1-[4-(2-oxo-4-(p-tolyl)-2H-pyrimidin-1-yl)butyl]piperazin-1-ium fumarate] | 7.87 | 37
CC(C)(C)c1nc(N2CCN(CCCCn3ccc(-c4ccccc4F)nc3=O)CC2)cc(C(F)(F)F)n1 [Example 67, 4-(2-tert-Butyl-6-trifluoromethylpyrimidin-4-yl)-1-{4-[4-(2-fluorophenyl)-2-oxo-2H-pyrimidin-1-yl]butyl}piperazin-1-ium fumarate] | 8.00 | 39
CCCc1cc(N2CCN(CCCCn3ccc(-c4cccc(F)c4)nc3=O)CC2)nc(C(C)(C)C)n1 [Example 72, 4-(2-tert-Butyl-6-propylpyrimidin-4-yl)-1-{4-[4-(3-fluorophenyl)-2-oxo-2H-pyrimidin-1-yl]butyl}piperazin-1-ium fumarate] | 8.83 | 54
CC(C)(C)c1nc(N2CCN(CCCCn3ccc(-c4cccc(F)c4)nc3=O)CC2)cc(C(F)(F)F)n1 [Example 73, 4-(2-tert-Butyl-6-trifluoromethylpyrimidin-4-yl)-1-{4-[4-(3-fluorophenyl)-2-oxo-2H-pyrimidin-1-yl]butyl}piperazin-1-ium fumarate] | 8.03 | 31
O=c1nc(-c2ccccc2)ccn1CCCCN1CCN(c2cccc(Cl)c2Cl)CC1 [Example 81, 4-(2,3-Dichlorophenyl)-1-[4-(2-oxo-4-phenyl-2H-pyrimidin-1-yl)butyl]piperazin-1-ium fumarate] | 8.59 | 94
CCCc1cc(N2CCN(CCCCn3cc(CC)c(=O)[nH]c3=O)CC2)nc(C(C)(C)C)n1 [Example 84, 4-(2-tert-Butyl-6-propylpyrimidin-4-yl)-1-[4-(5-ethyl-2,4-dioxo-3,4-dihydro-2H-pyrimidin-1-yl)butyl]piperazin-1-ium fumarate] | 9.12 | 63
CCOc1ccn(CCCCN2CCN(c3cc(C(F)(F)F)nc(C(C)(C)C)n3)CC2)c(=O)n1 [Example 85, 4-(2-tert-Butyl-6-trifluoromethylpyrimidin-4-yl)-1-[4-(4-ethoxy-2-oxo-2H-pyrimidin-1-yl)butyl]piperazin-1-ium fumarate] | 8.13 | 35
CCCc1cc(N2CCN(CCCCn3ccc(OCC)nc3=O)CC2)nc(C(C)(C)C)n1 [Example 86, 4-(2-tert-Butyl-6-propylpyrimidin-4-yl)-1-[4-(4-ethoxy-2-oxo-2H-pyrimidin-1-yl)butyl]piperazin-1-ium fumarate] | 8.61 | 43
CC(C)(C)c1nc(N2CCN(CCCCn3ccc(-c4ccsc4)nc3=O)CC2)cc(C(F)(F)F)n1 [Example 92, 4-(2-tert-Butyl-6-trifluoromethylpyrimidin-4-yl)-1-[4-(2-oxo-4-thiophen-3-yl-2H-pyrimidin-1-yl)butyl]piperazin-1-ium fumarate] | 8.34 | 31
